The values below come from US20090186000A1, “USE OF THYMOSIN ALPHA 1 FOR PREPARING A MEDICAMENT FOR THE TREATMENT OF STAGE IV MALIGNANT MELANOMA” (SIGMA-TAU INDUSTRIE FARMACEUTICHE RIUNITE S.P.A., priority 2006, published 2009).

One assay concerns metastatic melanoma. Particulars: cited from earlier work.
Assay [1] relates to stage IV melanoma characterized by distant unresectable metastases. The assay is described as follows: Phase II clinical trial, tumor response by RECIST criteria. Conditions: preliminary analysis on 142 patients; higher doses of Tα1. Format: in vivo, human.
Method: Trial Design phase II, randomized, stratified, open-study testing different doses of Tα1 in association with DTIC and IFNα, as first line therapy for stage IV melanoma patients characterized by distant unresectable metastases (AJCC; Journal of Clinical Oncology 2001, 19: 3635-3648) without brain metastases. The primary study end-point was tumor response, and the following combination composition were used: • DTIC (800 mg/m^2)+IFNα (3 MIU)+Tα1 (1.6 mg) (97 pts); • DTIC (800 mg/m^2)+IFNα (3 MIU)+Tα1 (3.2 mg) (97 pts); • DTIC (800 mg/m^2)+Tα1 (3.2 mg) (98 pts); • DTIC (800 mg/m^2)+IFNα (3 MIU) (94 pts);
The five groups were analyzed independently one another within the so-called “pick the winner” strategy.
Methods: Recycling every 28 days, patients were administered DTIC (800 mg/m^2) i.v. at day 1, Tα1 (1.6, 3.2 or 6.4 mg) s.c. at days 8-11 and 15-18, and IFNα (3 MIU) s.c. at day 11 and 18. Clinical response was evaluated every two cycles according to RECIST criteria (New Guidelines to Evaluate the Response to Treatment in Solid Tumors; Journal of the National Cancer Institute, 2000. 92: 205-216) utilizing a central reader.
The randomized patients were stratified according to the disease site: M1a, M1b or M1c level.
1) Patients with cutaneous, subcutaneous and/or limphnodal metastases with normal serum LDH value (from 96 to 460 U/L) were classified as M1a. […]
Assay [2] concerns human non-small cell lung cancer (NSCLC) cells. Particulars: subcutaneous, 1 or 10 mg per day; nude mice inoculated with human NSCLC cells; cited from earlier work.
Another assay concerns lymphosarcoma cells. Particulars: BALB/c mice; cited from earlier work.
Setting [3] is: DTIC alone, metastatic melanoma.

Ends that are not written are not given here.

For the compound `CN(C)/N=N/c1[nH]cnc1C(N)=O` [DTIC, Dacarbazine], the actual overall responses in the assay on metastatic melanoma (DTIC alone, metastatic melanoma, J Clin Oncol and ASCO proceedings 2004) is given as 5.5-6.8%. In the assay with metastatic melanoma (setting [3]), the “duration of responses (short-lived)” value is listed as “three to six” and the “effect of responses on patients' overall survival” value was “no evidence that these responses have any effect on the patients' overall survival”. The DTIC efficacy with metastatic melanoma (literature population similar to 16% M1a, 25% M1b, 59% M1c) is 5%.

For “thymosin alpha 1 (SDAAVDTSSEITTKDLKEKKEVVEEAEN; ends and bridges not checked; UniProt P06454 2-29, looked up) [a compound well known in the medical field]”, the “dose-response effect on tumor response” value in assay [1] is “clear dose-response effect”. The tumor volume entry in assay [2] was “significantly decreased”. In the assay with lymphosarcoma cells, the “liver and lung metastases” value is “significantly reduced”; the local sarcoma growth result is “significantly reduced”.
